This passage reports IC50 and EC50 results from patent publication US10981932B2, “Macrocyclic indole derivatives” (Bayer Aktiengesellschaft, priority 2016, dated 2021).

Where a name gives a salt, the structure may show the parent alone. Read-outs that look alike come from different tables or passages of the source. Where only a bound is given, the exact number is not on record here.

The target in one data set is MCL-1 (Homo sapiens, UniProt Q07820). In words: Protein-protein interaction assay MCL-1/Noxa BH3 peptide (MCL-1 assay), TR-FRET. As to conditions: MBP-MCL-1 / Noxa BH3-derived peptide, median. It is filed as binding. Put shortly: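 Displacement of the biotinylated Noxa BH3 peptide from MBP-tagged human MCL-1 (1 nM) is detected by time-resolved FRET. Compounds are tested in duplicate across eleven concentrations up to 20 μM, incubated 1 h at 22 °C and overnight at 4 °C, and IC50 is fitted with a four-parameter equation.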
Sequence of MCL-1 (Q07820 whole entry): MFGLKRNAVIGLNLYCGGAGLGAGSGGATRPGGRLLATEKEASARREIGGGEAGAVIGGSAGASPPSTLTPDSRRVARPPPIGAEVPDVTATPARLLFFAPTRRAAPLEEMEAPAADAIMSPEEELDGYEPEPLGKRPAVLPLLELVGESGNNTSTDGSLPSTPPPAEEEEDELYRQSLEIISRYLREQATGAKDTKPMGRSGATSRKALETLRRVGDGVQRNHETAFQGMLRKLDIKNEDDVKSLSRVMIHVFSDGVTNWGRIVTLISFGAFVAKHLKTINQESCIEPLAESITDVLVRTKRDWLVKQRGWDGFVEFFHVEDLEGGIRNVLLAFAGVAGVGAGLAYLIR

Data set [1] has as its system SUDHL5. The data set can be described thus: Induction of caspase-3/7 activity (Caspase-Glo 3/7), SUDHL5. The following applies: caspase-3/7 induction, SUDHL5 cells, 3 h treatment, median. It is filed as cell-based. The essentials: (§1)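 Caspase-Glo 3/7 luminescence, 3 h compound exposure, 37 °C, humidified. Minus medium-only blank. EC50 fit: C0=1, plateau = reference max induction.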

Data set [2] deals with SUDHL10. In words: Induction of caspase-3/7 activity (Caspase-Glo 3/7), SUDHL10. As to conditions: caspase-3/7 induction, SUDHL10 cells, 3 h treatment, median. It is filed as cell-based. The essentials:
as §1

Data set [3] relates to SUDHL5. The data set can be described thus: Anti-proliferative effect (CellTiter-Glo, 72 h), SUDHL5. It counts as cell-based. The following applies: SUDHL5 cells, antiproliferation, median, read-out: Antiproli SUDHL5 [M] (median). The essentials:
(§2)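 Viable cells quantified with CellTiter-Glo after 72 h at 37 °C; rim wells excluded; day 0 plate as baseline.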
(In general: In ATP-based viability assays light output follows the ATP content of the culture.)

The next data set deals with A2780. The data set can be described thus: Anti-proliferative effect (CellTiter-Glo, 72 h), A2780. It counts as cell-based. As to conditions: A2780 cells, median, read-out: IC50 antiproliferation assay A2780 [M] (median). The essentials: as §2
The subject of a further data set is MV-4-11. In words: Anti-proliferative effect (CellTiter-Glo, 72 h), MV-4-11. It is filed as cell-based. The following applies: MV-4-11 cells, median, read-out: IC50 antiproliferation assay MV-4-11 [M] (median). Put shortly: as §2
Data set [4] has as its system SUDHL5. In words: Induction of cytotoxicity (CellTiter-Glo, 5 h), SUDHL5.
Protocol: Therefore, cytotoxicity assays were run in parallel in SUDHL5 and SUDHL10 cells.
The different cell lines were plated in culture medium (RPMI 1640 [GIBCO #22400-089]supplemented with 10% Fetal Bovine Serum) at a density of 3.300 cells in 30 μl/well in a sterile, solid black, flat bottom, polystyrene, TC-treated 384-well microplate (Corning #3571) using Multidrop Combi Reagent Dispenser. As a control, medium without cells was also added to the plate. Cells were incubated in a humidified incubator at 37° C. overnight. On the next day, the cells were treated with compounds (stock solution, 10 mM in DMSO) using the HP D300 Digital Dispenser in a concentration range of 3.3×10e-5 M (33 μM) to 5×10e-9 M (5 nM) in a single-dot curve with at least 16 dilutions and a DMSO concentration of 0.33%. Rim wells were excluded. The cells were incubated for 5 h hours in a humidified incubator at 37° C. After this incubation, 30 μl of CellTiter-Glo@ Luminescent Cell Viability reagent (Promega, G7573) was added to each well using the Multidrop Combi Reagent Dispenser, followed by 15 min incubation on a shaker at room temperature. Finally, luminescence was read at 0.1 ms, with a gain of 3000 using the PHERAstar FS microplate reader (BMG Labtech).
The Bella DRC Master Sheet was used to calculate IC50s, with fixed CI=0 and C0=1.
Data set [5] has as its system SUDHL10. In words: Induction of cytotoxicity (CellTiter-Glo, 5 h), SUDHL10.
Where [6] appears, read: Homo sapiens, SU-DHL-5, 72 h, 72 h.
Where [7] appears, read: Homo sapiens, SU-DHL-5, 5 h, read-out: Cytotox SUDHL5 [M] (median), SUDHL5 cells, cytotoxicity induction, CellTiter-Glo, 5 h, median.
Setting [8] is: Homo sapiens, SU-DHL10, 5 h, read-out: Cytotox SUDHL10 [M] (median), SUDHL10 cells, cytotoxicity induction, CellTiter-Glo, 5 h, median.
Where [9] appears, read: read-out: Cytotox SUDHL5 [M] (median), SUDHL5 cells, cytotoxicity induction, CellTiter-Glo, 5 h incubation, median.
Where [10] appears, read: read-out: Cytotox SUDHL10 [M] (median), SUDHL10 cells, cytotoxicity induction, CellTiter-Glo, 5 h incubation, median.

Take `Cc1c2c(nn1C)COCCCCn1c(C(=O)O)c(CCc3cccc4ccccc34)c3cccc-2c31` (racemic) [Example 354, (rac)-2,3-dimethyl-7-[2-(naphthalen-1-yl)ethyl]-2,10,11,12,13,15-hexahydropyrazolo[4′,3′:9,10][1,6]oxazacycloundecino[8,7,6-hi]indole-8-carboxylic Acid]: the IC50 was 0.296 µM at MCL-1; more than 3.3e-05 M in the data set on SUDHL5 [3] (setting [6]); more than 3.3e-05 M with A2780; 2.73e-05 M in the data set on A2780 (Homo sapiens, A2780, 72 h); more than 3.3e-05 M with MV-4-11 (Homo sapiens, MV4-11, 72 h); more than 3.3e-05 M with SUDHL5 [4] (setting [7]). Besides, in the data set on SUDHL10 [5] (setting [8]), the IC50 is more than 3.3e-05 M. Also, the EC50 in the data set on SUDHL5 [1] (Homo sapiens, SU-DHL-5, 3 h) was more than 33 µM; in the data set on SUDHL10 [2] (Homo sapiens, SU-DHL10, 3 h), more than 33 µM.
On to `Cc1c2c(nn1C)COCCCCn1c(C(=O)O)c(CCc3ccc(C(F)(F)F)cc3)c3cccc-2c31` (racemic) [Example 355, (rac)-2,3-dimethyl-7-{2-[4-(trifluoromethyl)phenyl]ethyl}-2,10,11,12,13,15-hexahydropyrazolo[4′,3′:9,10][1,6]oxazacycloundecino[8,7,6-hi]indole-8-carboxylic Acid], for which the IC50 at MCL-1 was 1.51 µM; in the data set on SUDHL5 [3] (setting [6]), 3.2e-05 M; with A2780 (Homo sapiens, A2780, 72 h), more than 3.3e-05 M; with MV-4-11 (Homo sapiens, MV4-11, 72 h), more than 3.3e-05 M; in the data set with SUDHL5 [4] (setting [7]), more than 3.3e-05 M; in the data set with SUDHL10 [5] (setting [8]), more than 3.3e-05 M. For the same molecule, the EC50 in the data set with SUDHL5 [1] (Homo sapiens, SU-DHL-5, 3 h) was more than 33 µM; in the data set with SUDHL10 [2] (Homo sapiens, SU-DHL10, 3 h), more than 33 µM.
As for `Cc1c2c(nn1C)CNCCCCn1c(C(=O)O)c(CCCOc3cccc4ccccc34)c3cccc-2c31` (racemic) [Example 356, (rac)-2,3-dimethyl-7-[3-(naphthalen-1-yloxy)propyl]-10,11,12,13,14,15-hexahydro-2H-pyrazolo[3′,4′:8,9][1,6]diazacycloundecino[10,11,1-hi]indole-8-carboxylic Acid], the IC50 on MCL-1 is 0.00943 µM; in the data set with SUDHL5 [3] (setting [6]), 2.53e-05 M; in the data set with SUDHL5 [3] (72 h), more than 3.3e-05 M; in the data set with A2780 (Homo sapiens, A2780, 72 h) it was more than 3.3e-05 M; in the data set with MV-4-11 (Homo sapiens, MV4-11, 72 h), more than 3.3e-05 M; with SUDHL5 [4] (setting [7]), more than 3.3e-05 M. In the data set on SUDHL10 [5] (setting [8]), the IC50 was more than 3.3e-05 M. For the same molecule, the EC50 in the data set with SUDHL5 [1] (Homo sapiens, SU-DHL-5, 3 h) was 27.8 µM; in the data set with SUDHL5 [1] it was more than 33 µM; in the data set on SUDHL10 [2] (Homo sapiens, SU-DHL10, 3 h), more than 33 µM.
As for `Cc1c2c(nn1C)COCCCCn1c(C(=O)O)c(CCOc3ccc4ccccc4c3)c3cccc-2c31` (racemic) [Example 357, (rac)-2,3-dimethyl-7-[2-(naphthalen-2-yloxy)ethyl]-2,10,11,12,13,15-hexahydropyrazolo[4′,3′:9,10][1,6]oxazacycloundecino[8,7,6-hi]indole-8-carboxylic Acid], the IC50 is 0.0409 µM on MCL-1; 3.27e-05 M in the data set with SUDHL5 [3] (setting [6]); more than 3.3e-05 M with A2780 (Homo sapiens, A2780, 72 h); 3.19e-05 M in the data set with MV-4-11 (Homo sapiens, MV4-11, 72 h); more than 3.3e-05 M in the data set on SUDHL5 [4] (setting [7]); more than 3.3e-05 M in the data set on SUDHL10 [5] (setting [8]). The 50% effective concentration (EC50) is more than 33 µM in the data set with SUDHL5 [1] (Homo sapiens, SU-DHL-5, 3 h) and more than 33 µM in the data set with SUDHL10 [2] (Homo sapiens, SU-DHL10, 3 h).
Consider `COc1c2c(nn1C)COCCCCn1c(C(=O)O)c(CCCOc3cccc4ccccc34)c3cccc-2c31` (single isomer, unassigned) [Example 208, 3-methoxy-2-methyl-7-[3-(naphthalen-1-yloxy)propyl]-2,10,11,12,13,15-hexahydropyrazolo[4′,3′:9,10][1,6]oxazacycloundecino[8,7,6-hi]indole-8-carboxylate], for which the IC50 against MCL-1 was found to be 0.00373 µM; in the data set on SUDHL5 [3] (72 h incubation), 3.12e-06 M; in the data set on A2780 (Homo sapiens, A2780, 72 h), 2.03e-05 M; in the data set on MV-4-11 (Homo sapiens, MV4-11, 72 h), 2.68e-06 M; with SUDHL5 [4] (setting [9]) it was 2.63e-06 M; with SUDHL10 [5] (setting [10]) it was 9.98e-06 M. The half-maximal effective concentration (EC50) in the data set with SUDHL5 [1] turned out to be 2.99 µM; with SUDHL10 [2], 14 µM.
For the molecule `Cn1nc(COC2CC2)c2c1COCCCCn1c(C(=O)O)c(CCCOc3cccc4ccccc34)c3cccc-2c31` (single isomer, unassigned) [Example 215, 3-[(cyclopropyloxy)methyl]-1-methyl-7-[3-(naphthalen-1-yloxy)propyl]-1,10,11,12,13,15-hexahydropyrazolo[4′,3′:9,10][1,6]oxazacycloundecino[8,7,6-hi]indole-8-carboxylic Acid], the IC50 at MCL-1 was 0.182 µM; in the data set on SUDHL5 [3] (72 h incubation), 1.48e-05 M; with A2780, more than 3.3e-05 M; in the data set with MV-4-11, 2.33e-05 M; in the data set on SUDHL5 [4] (setting [9]), more than 3.3e-05 M; in the data set with SUDHL10 [5] (setting [10]), more than 3.3e-05 M. The EC50 in the data set with SUDHL5 [1] and in the data set on SUDHL10 [2] was more than 33 µM each time.
For `Cn1nc(C(F)(F)F)c2c1COCCCCn1c(C(=O)O)c(CCCOc3cccc4ccccc34)c3cccc-2c31` (single isomer, unassigned) [Example 217, 1-methyl-7-[3-(naphthalen-1-yloxy)propyl]-3-(trifluoromethyl)-1,10,11,12,13,15-hexahydropyrazolo[4′,3′:9,10][1,6]oxazacycloundecino[8,7,6-hi]indole-8-carboxylic Acid], the IC50 against MCL-1 is 0.00251 µM; in the data set on SUDHL5 [3] (72 h incubation) it was 5.58e-06 M; with A2780, 2.92e-05 M; in the data set with A2780 (Homo sapiens, A2780, 72 h), more than 3.3e-05 M; in the data set on MV-4-11 it was 1.52e-05 M; in the data set on SUDHL5 [4] (setting [9]) it was 3.92e-06 M. Also, the IC50 with SUDHL10 [5] (setting [10]) was 1.58e-05 M. In addition, the EC50 in the data set on SUDHL5 [1] was determined as 3.5 µM; with SUDHL10 [2] it was 13.4 µM.
`Cn1nc(C(F)(F)F)c2c1COCCCCn1c(C(=O)O)c(CCCOc3cccc4ccccc34)c3cccc-2c31` (single isomer, unassigned) [Example 218, 1-methyl-7-[3-(naphthalen-1-yloxy)propyl]-3-(trifluoromethyl)-1,10,11,12,13,15-hexahydropyrazolo[4′3′:9,10][1,6]oxazacycloundecino[8,7,6-hi]indole-8-carboxylic Acid]: the IC50 on MCL-1 is 0.559 µM; in the data set with SUDHL5 [3] (72 h incubation), 1.71e-05 M; with A2780, 2.52e-05 M; with MV-4-11, 3.05e-05 M; with SUDHL5 [4] (setting [9]), 2.76e-05 M; in the data set with SUDHL10 [5] (setting [10]), more than 3.3e-05 M. Moreover, the half-maximal effective concentration (EC50) with SUDHL5 [1] and in the data set on SUDHL10 [2] was more than 33 µM throughout.
Regarding `Cn1nc(CC(F)(F)F)c2c1COCCCCn1c(C(=O)O)c(CCCOc3cccc4ccccc34)c3cccc-2c31` (single isomer, unassigned) [Example 220, 1-methyl-7-[3-(naphthalen-1-yloxy)propyl]-3-(2,2,2-trifluoroethyl)-1,10,11,12,13,15-hexahydropyrazo[4′,3′:9,10][1,6]oxazacycloundecino[8,7,6-hi]indole-8-carboxylic acid-N-ethylethanamine Salt], the IC50 against MCL-1 was 0.00323 µM; with SUDHL5 [3] (Homo sapiens, SU-DHL-5, 72 h, 72 h incubation), 1.05e-05 M; in the data set with A2780 (Homo sapiens, A2780, 72 h), more than 3.3e-05 M; with MV-4-11 (Homo sapiens, MV4-11, 72 h) it was 2.27e-05 M; in the data set with SUDHL5 [4] (setting [9]), 9.69e-06 M; with SUDHL10 [5] (Homo sapiens, SU-DHL10, 5 h, read-out: Cytotox SUDHL10 [M] (median), SUDHL10 cells, cytotoxicity induction, CellTiter-Glo, 5 h incubation, median) it was more than 3.3e-05 M. The EC50 is 10.1 µM in the data set on SUDHL5 [1]; 22.4 µM with SUDHL10 [2] (Homo sapiens, SU-DHL10, 3 h); more than 33 µM in the data set with SUDHL10 [2].
On to `Cn1nc(CC(F)(F)F)c2c1COCCCCn1c(C(=O)O)c(CCCOc3cccc4ccccc34)c3cccc-2c31` (single isomer, unassigned) [Example 221, 1-methyl-7-[3-(naphthalen-1-yloxy)propyl]-3-(2,2,2-trifluoroethyl)-1,10,11,12,13,15-hexahydropyrazolo[4′,3′:9,10][1,6]oxazacycloundecino[8,7,6-hi]indole-8-carboxylic acid-N-ethylethanamine Salt], for which the IC50 was 0.353 µM on MCL-1; 9.75e-06 M with SUDHL5 [3] (72 h incubation); 3.28e-05 M in the data set with A2780; more than 3.3e-05 M in the data set with MV-4-11; more than 3.3e-05 M in the data set on SUDHL5 [4] (setting [9]); more than 3.3e-05 M in the data set with SUDHL10 [5] (setting [10]). Moreover, the 50% effective concentration (EC50) in the data set on SUDHL5 [1] and in the data set with SUDHL10 [2] was more than 33 µM throughout.

One may read the EC50 as the concentration that produces a half-maximal response. Lower therefore signals higher potency in that assay.
